Data: BigSolDB 2.1

O=C(O)c1cccc2ccccc12
solubility (mole fraction)
Details	in acetic acid	in ethanol	in ethyl acetate	in isobutanol	in isopropanol	in methanol	in methyl acetate	in n-butanol	in n-propanol
293.15 K	0.0172	0.0282	0.0294	0.0187	0.0251	0.0206	0.0257	0.03	0.027
298.15 K	0.0194	0.0311	0.0329	0.0213	0.0284	0.0229	0.0301	0.0344	0.0302
303.15 K	0.0224	0.0356	0.0374	0.0257	0.034	0.0269	0.0335	0.0389	0.0351
308.15 K	0.0257	0.0402	0.0418	0.0311	0.0401	0.0304	0.0387	0.0444	0.0407
313.15 K	0.0296	0.0457	0.0472	0.0364	0.0472	0.0351	0.043	0.0514	0.0461
318.15 K	0.0334	0.0513	0.0534	0.0427	0.0544	0.0392	0.0498	0.0605	0.0536
323.15 K	0.0383	0.0574	0.06	0.0502	0.0636	0.0443	0.055	0.0684	0.0604
328.15 K	0.0439	0.0654	0.0673	0.0588	0.0731	0.0496	0.0622	0.079	0.0702
333.15 K	0.0503	0.0738	0.0754	0.0685	0.0852	0.0557	–	0.0901	0.0795
